This note sets out measurements from patent US12291529B2, “Heterocyclic GLP-1 agonists” (Gasherbrum Bio, Inc., priority 2023, dated 2025).

For this test, the target named is GLP-1 Receptor (Homo sapiens, UniProt P43220). The test is described as follows: GLP-1R agonist cAMP stimulation assay (HEK293/GLP1R/CRE-LUC cells, Cisbio cAMP dynamic 2 kit). The class given is cell-based. The note with it: Table 3, HEK293/GLP1R/CRE-LUC cells, 30 min. The protocol: Activation of GLP-1 receptor is known to stimulate cyclic AMP (cAMP) production in cells which indicates primary coupling to the G as subunit of the G protein heterotrimeric complex.
GLP-1 Receptor, sequence (P43220 24-463, species assumed): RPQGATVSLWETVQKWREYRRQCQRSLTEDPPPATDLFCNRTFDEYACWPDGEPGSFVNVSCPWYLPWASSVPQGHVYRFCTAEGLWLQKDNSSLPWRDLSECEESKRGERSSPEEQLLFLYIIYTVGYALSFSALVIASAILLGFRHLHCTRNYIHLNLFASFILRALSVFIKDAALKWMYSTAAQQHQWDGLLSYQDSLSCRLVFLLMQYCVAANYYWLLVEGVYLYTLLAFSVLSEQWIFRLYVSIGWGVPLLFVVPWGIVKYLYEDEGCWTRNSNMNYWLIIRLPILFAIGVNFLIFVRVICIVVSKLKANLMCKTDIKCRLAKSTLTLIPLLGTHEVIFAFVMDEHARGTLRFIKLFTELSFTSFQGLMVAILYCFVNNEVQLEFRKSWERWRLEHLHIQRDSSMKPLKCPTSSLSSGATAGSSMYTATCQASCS
To optimize functional activity directed toward G as coupling, a HEK293/CRE-Luc cell line developed by HDB stably expressing the GLP-1 Receptor was used. 200× concentration of compound working solutions were prepared (Agilent Technologies Bravo) with ½ log serial dilution in 384-well Echo LDV plate (Labcyte, CatOLP-0200). 50 nL/well 200× concentration of compound working solutions were moved to 384-well white low volume plate (Greiner, Cat4784075) using Labcyte ECH0550.1×10^5 cells/mL HEK293/GLP1R/CRE-LUC (HD Biosciences) cell suspensions prepared with assay buffer (DPBS containing 0.5 mM IBMX (Sigma, Cat15879) and 0.10 BSA (GENVIEW, Cat4FA016-100g)), 10 uL cell suspensions were added to each well of previous generated assay plate which already contains 50 n^1 compound at 200 xconcentration using ThermioFisher Multidrop Combi (1000 cells/well). Seal the plate and incubate at 37 with […] for 30 m.
After incubation the cAMP assay signal was generated using cAMP dynamic 2 Kit (Cisbio). 5 μL cAMP-d2 working solution was added to each well, followed with 5 L Anti-cAMP antibody-cryptate working solution added to each well using ThermoFisher Multidrop Combi. Incubate at room temperature for 1 hour protected from light. Read the fluorescence at 665 and 615 nm with Reader PerkinElmer EnVision. % oActivity=100%×(mean RLU of test sample−mean RLU of vehicle control)/(mean RLU of MAX control−mean RLU of vehicle control)
The term EC50 denotes the concentration at which the effect is half-maximal. A high value points to a need for much substance. In the case of `Cc1cc(-n2nc3c(c2-n2ccn(-c4ccc(CS(C)(=N)=O)cc4F)c2=O)[C@H](C)N(C(=O)c2cc4cc(C5CCOCC5)ccc4n2[C@@]2(c4noc(=O)[nH]4)C[C@@H]2C)CC3)cc(C)c1F` (single isomer, unassigned) [Compound 174], the EC50 came out at 0.067 nM. In other words, the picomolar range.

In turn, `Cc1cc(-n2nc3c(c2-n2ccn(-c4ccc(CS(C)(=N)=O)cc4F)c2=O)[C@H](C)N(C(=O)c2cc4cc(C5CCOCC5)ccc4n2[C@@]2(c4noc(=O)[nH]4)C[C@@H]2C)CC3)cc(C)c1F` (single isomer, unassigned) [Compound 175] had an EC50 of 0.025 nM.

Turning to `Cc1cc(-n2nc3c(c2-n2ccn(-c4ccc(C5(S(C)(=N)=O)CC5)cc4)c2=O)[C@H](C)N(C(=O)c2cc4cc(C5CCOCC5)ccc4n2[C@@]2(c4noc(=O)[nH]4)C[C@@H]2C)CC3)cc(C)c1F` (single isomer, unassigned) [Compound 176], the response was half-maximal at 0.024 nM (EC50).

Consider `Cc1cc(-n2nc3c(c2-n2ccn(-c4ccc(C5(S(C)(=N)=O)CC5)cc4)c2=O)[C@H](C)N(C(=O)c2cc4cc(C5CCOCC5)ccc4n2[C@@]2(c4noc(=O)[nH]4)C[C@@H]2C)CC3)cc(C)c1F` (single isomer, unassigned) [Compound 177], for which the EC50 stood at 0.026 nM.

For `Cc1cc(-n2nc3c(c2-n2ccn(-c4ccc(S(=N)(=O)CC5CC5)cc4F)c2=O)[C@H](C)N(C(=O)c2cc4cc(C5CCOCC5)ccc4n2[C@@]2(c4noc(=O)[nH]4)C[C@@H]2C)CC3)cc(C)c1F` (single isomer, unassigned) [Compound 178], the response was half-maximal at 0.094 nM (EC50).

Compound `Cc1cc(-n2nc3c(c2-n2ccn(-c4ccc(C5CCS(=N)(=O)CC5)cc4)c2=O)[C@H](C)N(C(=O)c2cc4cc(C5CCOCC5)ccc4n2[C@@]2(c4noc(=O)[nH]4)C[C@@H]2C)CC3)cc(C)c1F` (single isomer, unassigned) [Compound 182] displayed an EC50 of 0.077 nM.

Regarding `Cc1cc(-n2nc3c(c2-n2ccn(-c4ccc(S(=N)(=O)CC5CC5)cc4F)c2=O)[C@H](C)N(C(=O)c2cc4cc([C@H]5CCOC(C)(C)C5)ccc4n2[C@@]2(c4noc(=O)[nH]4)C[C@@H]2C)CC3)cc(C)c1F` (single isomer, unassigned) [Compound 184], the EC50 was 0.01 nM.

Take `Cc1cc(-n2nc3c(c2-n2ccn(-c4ccc5c(c4F)CCN=S5(C)=O)c2=O)[C@H](C)N(C(=O)c2cc4cc([C@H]5CCOC(C)(C)C5)ccc4n2[C@@]2(c4noc(=O)[nH]4)C[C@@H]2C)CC3)cc(C)c1F` (single isomer, unassigned) [Compound 185]: the concentration giving a half-maximal response (EC50) was 0.016 nM.

Consider `Cc1cc(-n2nc3c(c2-n2ccn(-c4ccc5c(c4F)CCN=S5(C)=O)c2=O)[C@H](C)N(C(=O)c2cc4cc([C@H]5CCOC(C)(C)C5)ccc4n2[C@@]2(c4noc(=O)[nH]4)C[C@@H]2C)CC3)cc(C)c1F` (single isomer, unassigned) [Compound 186], for which a half-maximal effect (EC50) was put at 0.0047 nM.

As to `Cc1cc(-n2nc3c(c2-n2ccn(-c4ccc5c(c4F)CN=S5(C)=O)c2=O)[C@H](C)N(C(=O)c2cc4cc([C@H]5CCOC(C)(C)C5)ccc4n2[C@@]2(c4noc(=O)[nH]4)C[C@@H]2C)CC3)cc(C)c1F` (single isomer, unassigned) [Compound 187], the response was half-maximal at 0.01 nM (EC50).

As to `Cc1cc(-n2nc3c(c2-n2ccn(-c4ccc5c(c4F)CN=S5(C)=O)c2=O)[C@H](C)N(C(=O)c2cc4cc([C@H]5CCOC(C)(C)C5)ccc4n2[C@@]2(c4noc(=O)[nH]4)C[C@@H]2C)CC3)cc(C)c1F` (single isomer, unassigned) [Compound 188], the EC50 turned out to be 0.017 nM. This EC50 lies about 1.7-fold higher than the previous one.

For the compound `Cc1cc(-n2ccn(-c3c4c(nn3-c3cc(C)c(F)c(C)c3)CCN(C(=O)c3cc5cc([C@H]6CCOC(C)(C)C6)ccc5n3[C@@]3(c5noc(=O)[nH]5)C[C@@H]3C)[C@H]4C)c2=O)c(F)cc1S(=N)(=O)C1CC1` (single isomer, unassigned) [Compound 189], the EC50 was 0.047 nM.

`Cc1cc(-n2ccn(-c3c4c(nn3-c3cc(C)c(F)c(C)c3)CCN(C(=O)c3cc5cc([C@H]6CCOC(C)(C)C6)ccc5n3[C@@]3(c5noc(=O)[nH]5)C[C@@H]3C)[C@H]4C)c2=O)c(F)cc1S(=N)(=O)C1CC1` (single isomer, unassigned) [Compound 190]: it took 0.026 nM to reach a half-maximal effect (EC50).

In turn, `Cc1cc(-n2nc3c(c2-n2ccn(-c4ccc5c(c4F)CN=S5(=O)C4CC4)c2=O)[C@H](C)N(C(=O)c2cc4cc([C@H]5CCOC(C)(C)C5)ccc4n2[C@@]2(c4noc(=O)[nH]4)C[C@@H]2C)CC3)cc(C)c1F` (single isomer, unassigned) [Compound 191] returned an EC50 of 0.0096 nM.

`Cc1cc(-n2nc3c(c2-n2ccn(-c4ccc5c(c4F)CN=S5(=O)C4CC4)c2=O)[C@H](C)N(C(=O)c2cc4cc([C@H]5CCOC(C)(C)C5)ccc4n2[C@@]2(c4noc(=O)[nH]4)C[C@@H]2C)CC3)cc(C)c1F` (single isomer, unassigned) [Compound 192] came in with an EC50 of 0.02 nM.

`CN=S(=O)(c1cc(F)c(-n2ccn(-c3c4c(nn3-c3cc(C)c(F)c(C)c3)CCN(C(=O)c3cc5cc([C@H]6CCOC(C)(C)C6)ccc5n3[C@@]3(c5noc(=O)[nH]5)C[C@@H]3C)[C@H]4C)c2=O)cc1C)C1CC1` (single isomer, unassigned) [Compound 193] returned an EC50 of 0.1 nM.

On to `CN=S(=O)(c1cc(F)c(-n2ccn(-c3c4c(nn3-c3cc(C)c(F)c(C)c3)CCN(C(=O)c3cc5cc([C@H]6CCOC(C)(C)C6)ccc5n3[C@@]3(c5noc(=O)[nH]5)C[C@@H]3C)[C@H]4C)c2=O)cc1C)C1CC1` (single isomer, unassigned) [Compound 194], for which the EC50 worked out at 0.046 nM.

Compound `CN=S(=O)(c1ccc(-n2ccn(-c3c4c(nn3-c3cc(C)c(F)c(C)c3)CCN(C(=O)c3cc5cc([C@H]6CCOC(C)(C)C6)ccc5n3[C@@]3(c5noc(=O)[nH]5)C[C@@H]3C)[C@H]4C)c2=O)c(F)c1C)C1CC1` (single isomer, unassigned) [Compound 196] showed an EC50 of 0.039 nM.

With `Cc1cc(-n2nc3c(c2-n2ccn(-c4ccc5c(c4F)CCN=S5(=O)C4CC4)c2=O)[C@H](C)N(C(=O)c2cc4cc([C@H]5CCOC(C)(C)C5)ccc4n2[C@@]2(c4noc(=O)[nH]4)C[C@@H]2C)CC3)cc(C)c1F` (single isomer, unassigned) [Compound 197], it took 0.018 nM to reach a half-maximal effect (EC50).

Take `Cc1cc(-n2nc3c(c2-n2ccn(-c4ccc5c(c4F)CCN=S5(=O)C4CC4)c2=O)[C@H](C)N(C(=O)c2cc4cc([C@H]5CCOC(C)(C)C5)ccc4n2[C@@]2(c4noc(=O)[nH]4)C[C@@H]2C)CC3)cc(C)c1F` (single isomer, unassigned) [Compound 198]: the EC50 is 0.023 nM.

Regarding `Cc1cc(-n2nc3c(c2-n2ccn(-c4cc5c(cc4F)S(C)(=O)=NC5)c2=O)[C@H](C)N(C(=O)c2cc4cc([C@H]5CCOC(C)(C)C5)ccc4n2[C@@]2(c4noc(=O)[nH]4)C[C@@H]2C)CC3)cc(C)c1F` (single isomer, unassigned) [Compound 199], a half-maximal response (EC50) required 0.01 nM.

Consider `Cc1cc(-n2nc3c(c2-n2ccn(-c4cc5c(cc4F)S(C)(=O)=NC5)c2=O)[C@H](C)N(C(=O)c2cc4cc([C@H]5CCOC(C)(C)C5)ccc4n2[C@@]2(c4noc(=O)[nH]4)C[C@@H]2C)CC3)cc(C)c1F` (single isomer, unassigned) [Compound 200], for which the response was half-maximal at 0.01 nM (EC50).

Compound `Cc1cc(-n2nc3c(c2-n2ccn(-c4ccc5c(c4Cl)CN=S5(C)=O)c2=O)[C@H](C)N(C(=O)c2cc4cc([C@H]5CCOC(C)(C)C5)ccc4n2[C@@]2(c4noc(=O)[nH]4)C[C@@H]2C)CC3)cc(C)c1F` (single isomer, unassigned) [Compound 201] gave an EC50 of 0.011 nM.

`Cc1cc(-n2nc3c(c2-n2ccn(-c4ccc5c(c4Cl)CN=S5(C)=O)c2=O)[C@H](C)N(C(=O)c2cc4cc([C@H]5CCOC(C)(C)C5)ccc4n2[C@@]2(c4noc(=O)[nH]4)C[C@@H]2C)CC3)cc(C)c1F` (single isomer, unassigned) [Compound 202] registered an EC50 of 0.018 nM. Compared with the last compound, the EC50 is about 1.6-fold higher.

With `CN=S(=O)(c1ccc(-n2ccn(-c3c4c(nn3-c3cc(C)c(Cl)c(C)c3)CCN(C(=O)c3cc5cc([C@H]6CCOC(C)(C)C6)ccc5n3[C@@]3(c5noc(=O)[nH]5)C[C@@H]3C)[C@H]4C)c2=O)c(F)c1)C1CC1` (single isomer, unassigned) [Compound 203], the EC50 turned out to be 0.032 nM.

On to `CN=S(=O)(c1ccc(-n2ccn(-c3c4c(nn3-c3cc(C)c(F)c(C)c3)CCN(C(=O)c3cc5cc([C@H]6CCOC(C)(C)C6)ccc5n3[C@@]3(c5noc(=O)[nH]5)C[C@@H]3C)[C@H]4C)c2=O)c(Cl)c1)C1CC1` (single isomer, unassigned) [Compound 204], for which the EC50 stood at 0.039 nM.

Turning to `CN=S(=O)(c1ccc(-n2ccn(-c3c4c(nn3-c3cc(C)c(F)c(C)c3)CCN(C(=O)c3cc5cc([C@H]6CCOC(C)(C)C6)ccc5n3[C@@]3(c5noc(=O)[nH]5)C[C@@H]3C)[C@H]4C)c2=O)c(Cl)c1)C1CC1` (single isomer, unassigned) [Compound 205], a half-maximal effect (EC50) was put at 0.072 nM.

In turn, `CC1=Cc2cc(-n3ccn(-c4c5c(nn4-c4cc(C)c(F)c(C)c4)CCN(C(=O)c4cc6cc([C@H]7CCOC(C)(C)C7)ccc6n4[C@@]4(c6noc(=O)[nH]6)C[C@@H]4C)[C@H]5C)c3=O)ccc2S(C)(=O)=N1` (single isomer, unassigned) [Compound 206] registered an EC50 of 0.02 nM.
